Experiments:
Type in all cases: in vivo
[1] = system: monocotyledonous and dicotyledonous weed plants and crop plants; test: Pre-emergence herbicidal action and crop plant compatibility (PE), other species and comparison with A-117; settings: for Herbicidal activity ABUTH: Abutilon theophrasti; for Herbicidal activity AMARE: Amaranthus retroflexus; for Herbicidal activity MATIN: Matricaria inodora; for Herbicidal activity CYPES: Cyperus esculentus; for Herbicidal activity ECHCG: Echinochloa crus-galli; for Herbicidal activity POLCO: Polygonum convolvulus; for Herbicidal activity STEME: Stellaria media; for Herbicidal activity VIOTR: Viola tricolor
Source text: (§1) 1. Pre-emergence herbicidal action and crop plant compatibility (pre-emergence, PE) Seeds of monocotyledonous and dicotyledonous weed plants and crop plants are placed in plastic or organic planting pots and covered with soil. The compounds of the invention, formulated in the form of wettable powders (WP) or as emulsion concentrates (EC), are then applied onto the surface of the covering soil as aqueous suspension or emulsion with addition of 0.5% additive at a water application rate of […] (converted). After the treatment, the pots are placed in a greenhouse and kept under good growth conditions for the trial plants. After about 3 weeks, the effect of the preparations is scored visually in comparison with untreated controls as percentages. The tables below show the herbicidal activity of numerous compounds according to the invention against important harmful plants. For example, 100% activity=the plants have died, 0% activity=like control plants.
(§2) In a comparative experiment, by way of example, the herbicidal activity of compound No. 2-13 according to the invention was compared to that of compound No. A-117 known from WO 2013/076315 A2.

[2] = system: monocotyledonous and dicotyledonous weeds and crop plants; test: Post-emergence herbicidal action and crop plant compatibility (PO), including comparison with A-117; settings: for Herbicidal activity ECHCG: Echinochloa crus-galli; for Herbicidal activity VERPE: Veronica persica; for Herbicidal activity VIOTR: Viola tricolor; for Herbicidal activity ABUTH: Abutilon theophrasti; for Herbicidal activity AMARE: Amaranthus retroflexus; for Herbicidal activity PHBPU: Ipomoea purpurea; for Herbicidal activity SETVI: Setaria viridis; for Herbicidal activity STEME: Stellaria media; for herbicidal activity AVEFA: Avena fatua; for Herbicidal activity POLCO: Polygonum convolvulus
Description: 2. Post-emergence herbicidal action and crop plant compatibility (post-emergence, PO) Seeds of monocotyledonous and dicotyledonous weeds and crop plants are placed in sandy loam in plastic or organic planting pots, covered with soil and cultivated in a greenhouse under controlled growth conditions. 2 to 3 weeks after sowing, the test plants are treated at the one-leaf stage. The compounds of the invention, formulated in the form of wettable powders (WP) or as emulsion concentrates (EC), are then sprayed onto the green parts of the plants as aqueous suspension or emulsion with addition of 0.5% additive at a water application rate of […] (converted). After the test plants had been kept in the greenhouse under optimum growth conditions for about 3 weeks, the activity of the preparations is rated visually in comparison to untreated controls. The tables below show the herbicidal activity of numerous compounds according to the invention against important harmful plants. For example, 100% activity=the plants have died, 0% activity=like control plants.
as §2

[3] = system: AVEFA; test: Pre-emergence herbicidal action (PE), greenhouse pot test, AVEFA; settings: for herbicidal activity AVEFA: pre-emergence (PE), application rate 320, scored visually after about 3 weeks vs untreated controls, 100% = plants have died, 0% = like control plants
Source text: as §1

[4] = system: SETVI; test: Pre-emergence herbicidal action (PE), greenhouse pot test, SETVI; settings: for Herbicidal activity SETVI: pre-emergence (PE)
Source text: as §1

[5] = pre-emergence (PE), application rate 80, scored visually after about 3 weeks
[6] = post-emergence (PO), application rate 80, rated visually after about 3 weeks
[7] = Setaria viridis, application rate 320, scored visually after about 3 weeks
[8] = pre-emergence (PE), application rate 320, scored visually after about 3 weeks
[9] = post-emergence (PO), application rate 20, rated visually after about 3 weeks

SMILES	Herbicidal activity ABUTH [1, 5] [%]	Herbicidal activity AMARE [1, 5] [%]	Herbicidal activity MATIN [1, 5] [%]	Herbicidal activity ECHCG [2, 6] [%]	Herbicidal activity VIOTR [2, 6] [%]	herbicidal activity AVEFA [3] [%]	Herbicidal activity SETVI [4, 7] [%]	Herbicidal activity ABUTH [1, 8] [%]	Herbicidal activity AMARE [1, 8] [%]	Herbicidal activity CYPES [1, 8] [%]	Herbicidal activity ECHCG [1, 8] [%]	Herbicidal activity MATIN [1, 8] [%]	Herbicidal activity POLCO [1, 8] [%]	Herbicidal activity STEME [1, 8] [%]	Herbicidal activity VIOTR [1, 8] [%]	Herbicidal activity ABUTH [2, 6] [%]	Herbicidal activity AMARE [2, 6] [%]	Herbicidal activity PHBPU [2, 6] [%]	Herbicidal activity SETVI [2, 6] [%]	Herbicidal activity STEME [2, 6] [%]	also measured
Cn1nnnc1NC(=O)c1ccc(C(F)(F)F)c2c1S(=O)(=O)CCS2(=O)=O [Example 2-11]	100	80	80	80	90	–	–	–	–	–	–	–	–	–	–	–	–	–	–	–	Herbicidal activity VERPE [2, 6]: 80%
CCn1nnnc1NC(=O)c1ccc(C(F)(F)F)c2c1OCCS2(=O)=O [Example 3-19]	–	–	–	100	100	90	100	100	100	100	100	100	90	90	100	90	90	90	90	100	Herbicidal activity CYPES ([2]; post-emergence (PO), Cyperus esculentus, application rate 80, rated visually after about 3 weeks): 80%
Cn1nnnc1NC(=O)c1ccc(C(F)(F)F)c2c1OCCS2 [Example 2-13, 5-(trifluoromethyl)-2,3-dihydro-1,4-benzoxathiine-N-(1-methyltetrazol-5-yl)-8-carboxamide]	–	–	–	90	100	80	100	100	100	90	100	100	80	90	100	100	90	90	90	90	Herbicidal action against AVEFA ([3]; pre-emergence (PE) comparative experiment with A-117, Avena fatua, dosage 320 g/ha): 80%; Herbicidal action against SETVI ([4]; pre-emergence (PE) comparative experiment with A-117, Setaria viridis, dosage 320 g/ha): 100%; Herbicidal action against ABUTH ([1]; pre-emergence (PE) comparative experiment with A-117, Abutilon theophrasti, dosage 320 g/ha): 100%; Herbicidal action against ALOMY ([1]; pre-emergence (PE) comparative experiment with A-117, Alopecurus myosuroides, dosage 320 g/ha): 90%; Herbicidal action against MATIN ([1]; pre-emergence (PE) comparative experiment with A-117, Matricaria inodora, dosage 320 g/ha): 100%; herbicidal activity compared to compound No. A-117 ([1]; pre-emergence comparative experiment, numerous harmful plants): superiority of the compound according to the invention was demonstrated clearly; Herbicidal action against ABUTH ([2]; post-emergence (PO) comparative experiment with A-117, Abutilon theophrasti, dosage 80 g/ha): 100%; Herbicidal action against ALOMY ([2]; post-emergence (PO) comparative experiment with A-117, Alopecurus myosuroides, dosage 80 g/ha): 90%; Herbicidal action against AVEFA ([2]; post-emergence (PO) comparative experiment with A-117, Avena fatua, dosage 80 g/ha): 90%; Herbicidal action against LOLMU ([2]; post-emergence (PO) comparative experiment with A-117, Lolium multiflorum, dosage 80 g/ha): 80%; Herbicidal action against POLCO ([2]; post-emergence (PO) comparative experiment with A-117, Polygonum convolvulus, dosage 80 g/ha): 80%; Herbicidal activity ALOMY ([2]; post-emergence (PO), Alopecurus myosuroides, application rate 80, rated visually after about 3 weeks): 90%; herbicidal activity AVEFA [2, 6]: 90%; Herbicidal activity LOLMU ([2]; post-emergence (PO), Lolium multiflorum, application rate 80, rated visually after about 3 weeks): 80%; Herbicidal activity MATIN ([2]; post-emergence (PO), Matricaria inodora, application rate 80, rated visually after about 3 weeks): 90%; Herbicidal activity POLCO [2, 6]: 80%; Herbicidal activity VERPE [2, 6]: 100%; herbicidal activity compared to compound No. A-117 ([2]; post-emergence comparative experiment, numerous harmful plants): superiority of the compound according to the invention was demonstrated clearly
Cn1nnnc1NC(=O)c1ccc(C(F)(F)F)c2c1SCCS2 [Example 2-5, 5-(trifluoromethyl)-2,3-dihydro-1,4-benzodithiine-N-(1-methyltetrazol-5-yl)-8-carboxamide]	100	100	100	–	–	–	–	–	–	–	–	–	–	–	–	–	–	–	–	–	Herbicidal activity SETVI ([4]; application rate 80, scored visually after about 3 weeks vs untreated controls, 100% = plants have died, 0% = like control plants): 90%; Herbicidal activity STEME [1, 5]: 90%; Herbicidal activity VERPE ([1]; pre-emergence (PE), Veronica persica, application rate 80, scored visually after about 3 weeks): 90%; Herbicidal activity VIOTR [1, 5]: 100%; Herbicidal activity ABUTH [2, 9]: 90%; Herbicidal activity AMARE [2, 9]: 100%; Herbicidal activity ECHCG [2, 9]: 90%; Herbicidal activity STEME [2, 9]: 80%; Herbicidal activity VIOTR [2, 9]: 80%
CCn1nnnc1NC(=O)c1ccc(C(F)(F)F)c2c1OCCS2 [Example 3-13, 5-(trifluoromethyl)-2,3-dihydro-1,4-benzoxathiine-N-(1-ethyltetrazol-5-yl)-8-carboxamide]	–	–	–	100	100	80	100	100	100	100	100	90	90	100	100	100	90	90	90	100	herbicidal activity AVEFA [2, 6]: 90%; Herbicidal activity POLCO [2, 6]: 100%
Cn1nnnc1NC(=O)c1ccc(C(F)(F)F)c2c1OCC(Cl)S2 (stereo not shown) [Example 2-41]	–	–	–	–	–	–	–	–	–	–	–	–	–	–	–	–	90	–	–	–	–

— US12286425B2, “Herbicidally active bicyclic benzamides” (Bayer Aktiengesellschaft, priority 2018, dated 2025)
